Measured values from ChEMBL document CHEMBL1201862, “PubChem BioAssay data set” (2004).
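Dose response: 5 concentrations. Exposure: 48 h. Format: 96-well plates. Endpoint: linear interpolation; highest concentration if not reached. GI50 is the concentration that inhibits growth by half.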 Calls of active or inactive are those of the source. No stated cut-off is given here; in the data, active = GI50 up to about 1.1 µM and inactive = higher.

Key:
Experiment in all cases: NCI-60 cell line screen, 48 h
ACHN = tested on: ACHN
CAKI-1 = tested on: CAKI-1
HCT-15 = tested on: HCT-15
HL-60 = tested on: HL-60
HOP-92 = tested on: HOP-92
HT-29 = tested on: HT-29
Hs-578T = tested on: Hs-578T
KM12 = tested on: KM12
MCF7 = tested on: MCF7
MDA-MB-231 = tested on: MDA-MB-231
Malme-3M = tested on: Malme-3M
NCI-H460 = tested on: NCI-H460
SK-OV-3 = tested on: SK-OV-3
SN12C = tested on: SN12C
SNB-75 = tested on: SNB-75
U-251 = tested on: U-251
UACC-257 = tested on: UACC-257
MOLT-4 = tested on: MOLT-4
SF-539 = tested on: SF-539
SR = tested on: SR

Measured: GI50

CC(C)CNCCc1ccccn1
> 100 µM: HCT-15
inactive: ACHN > 100 µM | CAKI-1 > 100 µM | HL-60 > 100 µM | HOP-92 > 100 µM | HT-29 > 100 µM | Hs-578T > 100 µM | KM12 > 100 µM | MCF7 > 100 µM | MDA-MB-231 > 100 µM | Malme-3M > 100 µM | NCI-H460 > 100 µM | SK-OV-3 > 100 µM | SN12C > 100 µM | SNB-75 > 100 µM | U-251 > 100 µM | UACC-257 > 100 µM

COc1ccc2oc(=N)c(C(=O)NCc3ccccc3)cc2c1
inactive: ACHN 13.3 µM | CAKI-1 34.6 µM | HL-60 > 100 µM | HT-29 34.7 µM | Hs-578T 15.8 µM | KM12 13.3 µM | MCF7 24 µM | MDA-MB-231 23.3 µM | MOLT-4 46.3 µM | Malme-3M 15.5 µM | NCI-H460 28.5 µM | SF-539 25.2 µM | SK-OV-3 20.3 µM | SN12C 32.2 µM | SNB-75 15.3 µM | SR 54.8 µM | U-251 16.9 µM | UACC-257 24.8 µM
21.1 µM: HCT-15

Cc1cnc(/C=N\NC(N)=S)c2cccc(N)c12
active: ACHN 0.387 µM | CAKI-1 0.516 µM | HL-60 0.3 µM | HT-29 0.711 µM | MCF7 0.526 µM | MOLT-4 0.34 µM | NCI-H460 0.538 µM | SF-539 0.676 µM | SN12C 0.434 µM | SNB-75 0.553 µM | SR 0.314 µM | U-251 0.604 µM
0.78 µM: HCT-15
inactive: Hs-578T > 100 µM | KM12 1.9 µM | MDA-MB-231 1.52 µM | Malme-3M 1.62 µM | SK-OV-3 2.59 µM | UACC-257 2.54 µM

COc1ccc(N2C(=O)C3c4[nH]c5ccccc5c4C4CCC(c5ccccc5)CC4C3C2=O)cc1 (centres undefined)
active: SR 0.424 µM
inactive: ACHN 12.3 µM | CAKI-1 17.4 µM | HOP-92 16.1 µM | HT-29 > 57.5 µM | Hs-578T 5.74 µM | KM12 > 70.5 µM | MCF7 39 µM | MDA-MB-231 10.9 µM | MOLT-4 26.6 µM | Malme-3M 3.38 µM | NCI-H460 10.3 µM | SF-539 1.48 µM | SK-OV-3 20.2 µM | SN12C 28.5 µM | SNB-75 6.04 µM | U-251 5.92 µM | UACC-257 48.4 µM
36 µM: HCT-15

CC(=O)O[C@@H]1[C@H]2O[C@H]2[C@H]2O[C@@]2(COC(=O)c2ccccc2)[C@H]1OC(C)=O
> 100 µM: HCT-15
inactive: ACHN 16.9 µM | CAKI-1 99.1 µM | HL-60 > 100 µM | HOP-92 > 100 µM | HT-29 > 100 µM | Hs-578T > 100 µM | KM12 > 100 µM | MCF7 > 100 µM | MDA-MB-231 > 100 µM | MOLT-4 32.1 µM | Malme-3M > 100 µM | NCI-H460 34.2 µM | SF-539 > 100 µM | SK-OV-3 > 100 µM | SN12C > 100 µM | SNB-75 > 100 µM | U-251 > 100 µM | UACC-257 > 100 µM

COC(OC)C1OC(CO)C(n2cc(F)c(=O)[nH]c2=O)C1O (centres undefined)
inactive: ACHN > 100 µM | CAKI-1 > 100 µM | HL-60 > 100 µM | HOP-92 > 100 µM | HT-29 > 100 µM | Hs-578T > 100 µM | KM12 > 100 µM | MCF7 > 100 µM | MDA-MB-231 > 100 µM | MOLT-4 > 100 µM | NCI-H460 > 100 µM | SF-539 > 100 µM | SK-OV-3 > 100 µM | SN12C > 100 µM | SNB-75 > 100 µM | U-251 > 100 µM | UACC-257 > 100 µM
> 100 µM: HCT-15

Cc1ccc(C(=O)N/N=C(\N=N\c2ccccc2C(=O)O)c2ccc(N(C)C)cc2)cc1
64.7 µM: HCT-15
inactive: CAKI-1 > 100 µM | HL-60 53.5 µM | HOP-92 > 100 µM | HT-29 > 100 µM | Hs-578T > 100 µM | KM12 42.9 µM | MCF7 > 100 µM | MDA-MB-231 > 100 µM | MOLT-4 71.4 µM | NCI-H460 72.6 µM | SF-539 > 100 µM | SN12C > 100 µM | U-251 > 100 µM | UACC-257 > 100 µM

COC1=C(OC)C(=O)C(Cc2c(Cl)nc3n2CCS3)=C(C)C1=O
17.1 µM: HCT-15
inactive: ACHN 14.8 µM | CAKI-1 16.6 µM | HL-60 2.3 µM | HT-29 17 µM | Hs-578T 19.8 µM | KM12 14 µM | MCF7 12.9 µM | MDA-MB-231 4.04 µM | MOLT-4 1.36 µM | Malme-3M 7.83 µM | NCI-H460 15 µM | SF-539 14.6 µM | SK-OV-3 12.6 µM | SN12C 16.3 µM | SR 7.59 µM | U-251 17.5 µM | UACC-257 9.84 µM

CCC(c1ccc(OC)cc1)C1NC(=S)NC1=O (centres undefined)
inactive: ACHN > 50 µM | CAKI-1 > 50 µM | HL-60 12.4 µM | HOP-92 > 50 µM | HT-29 > 50 µM | Hs-578T > 50 µM | KM12 > 50 µM | MCF7 > 50 µM | MDA-MB-231 > 50 µM | MOLT-4 35.5 µM | Malme-3M > 50 µM | NCI-H460 > 50 µM | SF-539 > 50 µM | SK-OV-3 > 50 µM | SN12C > 50 µM | SNB-75 > 50 µM | U-251 > 50 µM | UACC-257 > 50 µM
> 50 µM: HCT-15

CCOc1ccc(NC(=O)C(=O)C(/C(=N/N)C(=O)OC)c2nc3ccc([N+](=O)[O-])cc3nc2O)cc1 (centres undefined)
> 100 µM: HCT-15
inactive: ACHN > 100 µM | CAKI-1 > 100 µM | HOP-92 > 100 µM | HT-29 > 100 µM | Hs-578T > 100 µM | KM12 > 100 µM | MCF7 > 100 µM | MDA-MB-231 > 100 µM | MOLT-4 > 100 µM | Malme-3M > 100 µM | NCI-H460 > 100 µM | SF-539 > 100 µM | SK-OV-3 > 100 µM | SN12C > 100 µM | SNB-75 > 100 µM | SR 70 µM | U-251 > 100 µM | UACC-257 > 100 µM

COc1ccc(C(OC(C)=O)C2C(=C(C#N)C#N)c3ccccc3C2=C(C#N)C#N)cc1 (centres undefined)
inactive: ACHN 36.4 µM | CAKI-1 39.6 µM | HL-60 18.5 µM | HOP-92 45.1 µM | HT-29 29.9 µM | Hs-578T 35.6 µM | KM12 43.7 µM | MCF7 48.3 µM | MDA-MB-231 39.5 µM | MOLT-4 25.9 µM | NCI-H460 28.1 µM | SF-539 20.6 µM | SK-OV-3 18.6 µM | SNB-75 36.1 µM | SR 16.1 µM | U-251 41.9 µM | UACC-257 > 100 µM
31.2 µM: HCT-15

O=C1C(Br)=CC2(C=C1Br)CCNC1=C2C(=O)c2[nH]cnc2C1=O
inactive: ACHN 14.6 µM | CAKI-1 24.5 µM | HL-60 4.79 µM | HOP-92 12.3 µM | HT-29 15.5 µM | Hs-578T 26.3 µM | KM12 16.9 µM | MCF7 14.6 µM | MDA-MB-231 15.8 µM | MOLT-4 41.5 µM | NCI-H460 16.7 µM | SF-539 18.1 µM | SK-OV-3 21.5 µM | SNB-75 15.6 µM | SR 30.1 µM | U-251 15 µM | UACC-257 14.6 µM
15.6 µM: HCT-15

CN(CCNC(=S)c1cn(C)c2c1ccc1ccccc12)CCNC(=S)c1cn(C)c2c1ccc1ccccc12
inactive: ACHN > 100 µM | CAKI-1 > 100 µM | HOP-92 5.64 µM | HT-29 27.5 µM | Hs-578T 69.2 µM | KM12 37.1 µM | MCF7 33.5 µM | MDA-MB-231 38.7 µM | MOLT-4 24.7 µM | Malme-3M > 100 µM | NCI-H460 71.8 µM | SF-539 47.6 µM | SK-OV-3 > 100 µM | SN12C 40.9 µM | SNB-75 10.7 µM | SR 49.5 µM | U-251 23.7 µM | UACC-257 46.2 µM
> 100 µM: HCT-15

CCOc1nc2sc3c(c2c(=O)n1CCSSCCn1c(OCC)nc2sc4c(c2c1=O)CCCC4)CCCC3
inactive: ACHN > 100 µM | CAKI-1 > 100 µM | HT-29 > 100 µM | Hs-578T > 100 µM | KM12 > 100 µM | MCF7 > 100 µM | MDA-MB-231 > 100 µM | MOLT-4 > 100 µM | Malme-3M > 100 µM | NCI-H460 > 100 µM | SF-539 > 100 µM | SK-OV-3 > 100 µM | SN12C > 100 µM | SNB-75 > 100 µM | SR > 100 µM | U-251 > 100 µM | UACC-257 > 100 µM
> 100 µM: HCT-15

Nc1ccc2[nH]c(C(=O)N3CC(CCl)c4c3cc(N)c3ccccc43)cc2c1 (centres undefined)
< 0.01 µM: HCT-15
active: ACHN < 0.01 µM | CAKI-1 < 0.01 µM | HL-60 < 0.01 µM | HOP-92 0.0115 µM | HT-29 < 0.01 µM | Hs-578T 0.0204 µM | KM12 0.0114 µM | MCF7 < 0.01 µM | MDA-MB-231 < 0.0208 µM | MOLT-4 < 0.01 µM | NCI-H460 < 0.01 µM | SF-539 < 0.01 µM | SK-OV-3 0.0175 µM | SN12C < 0.01 µM | SNB-75 < 0.01 µM | SR < 0.01 µM | U-251 < 0.01 µM | UACC-257 0.0142 µM
